These results are taken from patent US8940896B2, “Tetra-cyclic carboline derivatives useful in the inhibition of angiogenesis” (PTC Therapeutics, Inc., priority 2004, dated 2015).

The subject of this assay is VEGF. In words: Hypoxia-inducible endogenous VEGF expression, VEGF ELISA assay. It counts as cell-based. The note with it: HeLa cells, hypoxic conditions (1% O2, 5% CO2), VEGF in conditioned media. On the procedure:
The ability of the compounds of the invention to modulate hypoxia-inducible endogenous VEGF expression may be analyzed as follows. VEGF protein levels may be monitored by an ELISA assay (R&D Systems). Briefly, HeLa cells may be cultured for 24-48 hours under hypoxic conditions (1% O2, 5% CO2, balanced with nitrogen) in the presence or absence of a compound of the invention. The conditioned media may then be assayed by ELISA, and the concentration of VEGF calculated from the standard ELISA curve of each assay.
A dose-response analysis may be performed using the ELISA assay and conditions described above. The conditions for the dose-response ELISA are analogous to those described above. A series of, e.g., seven different concentrations may be analyzed. In parallel, a dose-response cytotoxicity assay may be performed using CellTiter Glo (Promega) under the same conditions as the ELISA to ensure that the inhibition of VEGF expression was not due to the cytotoxicity. Dose-response curves may be plotted using percentage inhibition versus concentration of the compound, and EC50 and CC50 values may be generated for each compound with the maximal inhibition set as 100% and the minimal inhibition as 0%.
In general terms: ELISA stands for enzyme-linked immunosorbent assay.

For orientation: EC50 means the midpoint of the concentration-response curve. Higher therefore signals a need for much substance. As for `COc1ccc(C2c3[nH]c4ccc(Br)cc4c3CC3C(=O)N(c4ccc5c(c4)OCO5)C(=S)N32)cc1` (centres unmarked) [Compound 179], the EC50 (Homo sapiens, HeLa) was less than 0.008 µM.

As for `CN(C)CCCOc1ccc(C2c3[nH]c4ccc(Br)cc4c3CC3C(=O)N(C4CCCCC4)C(=S)N32)cc1` (centres unmarked) [Compound 112], the 50% effective concentration (EC50) (Homo sapiens, HeLa) is less than 0.008 µM.

With `COc1ccc(C2c3[nH]c4ccc(Br)cc4c3CC3C(=O)N(c4ccccc4C)C(=S)N32)cc1` (centres unmarked) [Compound 169], the EC50 (Homo sapiens, HeLa) fell in the range of 0.04 to 0.2 µM.

Regarding `CCN1C(=O)C2Cc3c([nH]c4ccc(Br)cc34)C(c3ccc(OC)cc3)N2C1=O` (centres unmarked) [Compound 55], the concentration for a half-maximal effect (EC50) (Homo sapiens, HeLa) was more than 1 µM.

The compound `CCN1C(=O)C2Cc3c([nH]c4ccccc34)C(c3ccc(OC)cc3)N2C1=O` (centres unmarked) [Compound 66] returned an EC50 (Homo sapiens, HeLa) of more than 1 µM.

In turn, `CCOCN(C)CCCOc1ccc(C2c3[nH]c4ccc(Br)cc4c3CC3C(=O)N(c4ccc(Cl)cc4)C(=S)N32)cc1` (centres unmarked) [Compound 197] showed an EC50 (Homo sapiens, HeLa) of 0.008 to 0.04 µM.

On to `COc1ccc(C2c3[nH]c4ccc(Br)cc4c3CC3C(=O)N(Cc4ccco4)C(=S)N32)cc1` (centres unmarked) [Compound 180], for which the concentration giving a half-maximal response (EC50) (Homo sapiens, HeLa) is less than 0.008 µM.

`O=C1C2Cc3c([nH]c4ccc(Br)cc34)C(c3ccc(OCCCN4CCSCC4)cc3)N2C(=S)N1c1ccc(Cl)cc1` (centres unmarked) [Compound 196] returned an EC50 (Homo sapiens, HeLa) of less than 0.008 µM.

`CC(C)N1C(=O)C2Cc3c([nH]c4ccc(Cl)cc34)C(c3ccc(-c4cncnc4)cc3)N2C1=S` (centres unmarked) [Compound 135]: the EC50 (Homo sapiens, HeLa) lay within 0.04 to 0.2 µM.

Compound `CCC(C)N1C(=O)C2Cc3c([nH]c4ccc(Br)cc34)C(c3ccc(C(C)C)cc3)N2C1=S` (centres unmarked) [Compound 95] yielded an EC50 (Homo sapiens, HeLa) of less than 0.008 µM.

With `COc1ccc(C2c3[nH]c4ccc(Br)cc4c3CC3C(=O)N(c4ccc(OC)cc4C)C(=S)N32)cc1` (centres unmarked) [Compound 177], the half-maximal effective concentration (EC50) (Homo sapiens, HeLa) was in the range of 0.04 to 0.2 µM.

Compound `COc1ccc(C2c3[nH]c4ccc(Br)cc4c3CC3C(=O)N(C4CCCCC4)C(=S)N32)cc1` (centres unmarked) [Compound 27] came in with an EC50 of less than 0.008 µM.

In turn, `CC(=O)N1CCN(CCCOc2ccc(C3c4[nH]c5ccc(Br)cc5c4CC4C(=O)N(C(C)C)C(=S)N43)cc2)CC1` (centres unmarked) [Compound 152] had an EC50 (Homo sapiens, HeLa) of less than 0.008 µM.

Under “Homo sapiens, HeLa”, `Cc1ccccc1N1C(=O)C2Cc3c([nH]c4ccccc34)C(c3cccc(Cl)c3)N2C1=S` (centres unmarked) [Compound 37] registered an EC50 of more than 1 µM.

Compound `CC(C)N1C(=O)C2Cc3c([nH]c4ccccc34)C(c3cccc(Cl)c3)N2C1=S` (centres unmarked) [Compound 68] came in with a concentration giving a half-maximal response (EC50) (Homo sapiens, HeLa) of more than 1 µM.

With `CCCN1C(=O)C2Cc3c([nH]c4ccc(Br)cc34)C(c3ccc(OCCN4CCOCC4)cc3)N2C1=S` (centres unmarked) [Compound 102], under “Homo sapiens, HeLa”, the EC50 fell in the range of 0.008 to 0.04 µM.

For the setting “Homo sapiens, HeLa”, `CC(C)N1C(=O)C2Cc3c([nH]c4ccc(Br)cc34)C(c3ccc(N4CCN(C)CC4)cc3)N2C1=S` (centres unmarked) [Compound 129] displayed an EC50 of 0.008 to 0.04 µM.

In turn, `COc1ccc(C2c3[nH]c4ccc(Br)cc4c3CC3C(=O)N(c4ccc(Cl)c(C(F)(F)F)c4)C(=S)N32)cc1` (centres unmarked) [Compound 173] gave a concentration for a half-maximal effect (EC50) (Homo sapiens, HeLa) of less than 0.008 µM.

Regarding `CC(C)N1C(=O)C2Cc3c([nH]c4ccc(Cl)cc34)C(c3ccc(-c4ccncc4)cc3)N2C1=S` (centres unmarked) [Compound 134], the half-maximal effective concentration (EC50) (Homo sapiens, HeLa) is 0.008 to 0.04 µM.

In the case of `COc1ccc(C2c3[nH]c4ccc(Br)cc4c3CC3C(=O)N(c4ccc(C(F)(F)F)cc4)C(=S)N32)cc1` (centres unmarked) [Compound 163], the half-maximal effective concentration (EC50) (Homo sapiens, HeLa) is less than 0.008 µM.

Take `O=C1C2Cc3c([nH]c4ccc(Cl)cc34)C(c3ccc(OCCN4CCOCC4)cc3)N2C(=S)N1C1CCCCC1` (centres unmarked) [Compound 113]: where the note is “Homo sapiens, HeLa”, the EC50 was less than 0.008 µM.

In turn, `COc1ccc(C2c3[nH]c4ccc(Br)cc4c3CC3C(=O)N(c4ccc(F)cc4)C(=S)N32)cc1` (centres unmarked) [Compound 168] displayed an EC50 (Homo sapiens, HeLa) of less than 0.008 µM.

In the case of `O=C1C2Cc3c([nH]c4ccc(Br)cc34)C(c3ccc4c(c3)OCO4)N2C(=S)N1C1CCCCC1` (centres unmarked) [Compound 9], the EC50 lay in the range of 0.008 to 0.04 µM.

Consider `CC(C)N1C(=O)C2Cc3c([nH]c4ccc(Br)cc34)C(c3ccc(OCCCn4cncn4)cc3)N2C1=S` (centres unmarked) [Compound 184], for which the EC50 (Homo sapiens, HeLa) is less than 0.008 µM.

The compound `COc1ccccc1C1c2[nH]c3ccccc3c2CC2C(=O)N(CCc3ccccc3)C(=S)N21` (centres unmarked) [Compound 94] came in with an EC50 (Homo sapiens, HeLa) of more than 1 µM.

Compound `COc1ccc(C2c3[nH]c4ccc(Br)cc4c3CC3C(=O)N(c4ccc(C)cc4)C(=S)N32)cc1` (centres unmarked) [Compound 171] returned a concentration for a half-maximal effect (EC50) (Homo sapiens, HeLa) of less than 0.008 µM.

`COc1ccc(C2c3[nH]c4ccc(Br)cc4c3CC3C(=O)N(C4CCCCC4)C(=S)N32)cc1` (centres unmarked) [Compound 187]: the EC50 was more than 1 µM.

As to `O=C1C2Cc3c([nH]c4ccc(Br)cc34)C(C3CCCCC3)N2C(=S)N1C1CC1` (centres unmarked) [Compound 15], where the note is “Homo sapiens, HeLa”, the EC50 lay within 0.2 to 1 µM.

In turn, `O=C1C2Cc3c([nH]c4ccc(Br)cc34)C(c3ccc(OCCCN4CCCCC4)cc3)N2C(=S)N1c1ccc(Cl)cc1` (centres unmarked) [Compound 190] came in with a 50% effective concentration (EC50) (Homo sapiens, HeLa) of 0.008 to 0.04 µM.

For the setting “Homo sapiens, HeLa”, `COc1ccc(C2c3[nH]c4ccc(Br)cc4c3CC3C(=O)N(c4cccc(OC)c4)C(=S)N32)cc1` (centres unmarked) [Compound 142] displayed an EC50 of less than 0.008 µM.

In the case of `COc1ccc(C2c3[nH]c4ccc(Br)cc4c3CC3C(=O)N(C4CCCC4)C(=S)N32)cc1` (centres unmarked) [Compound 21], the half-maximal effective concentration (EC50) (Homo sapiens, HeLa) was less than 0.008 µM.

`COc1cccc(C2c3[nH]c4ccccc4c3CC3C(=O)N(c4ccccc4)C(=S)N32)c1` (centres unmarked) [Compound 57] registered an EC50 (Homo sapiens, HeLa) of more than 1 µM.

`Cc1ccc(N2C(=O)C3Cc4c([nH]c5ccccc45)C(c4cccc(Cl)c4)N3C2=S)cc1` (centres unmarked) [Compound 34] gave an EC50 (Homo sapiens, HeLa) of 0.2 to 1 µM.

`COc1ccc(C2c3[nH]c4ccc(Br)cc4c3CC3C(=O)N(c4ccccc4C(C)C)C(=S)N32)cc1` (centres unmarked) [Compound 183] had a 50% effective concentration (EC50) (Homo sapiens, HeLa) of 0.04 to 0.2 µM.

Take `COCCN(C)CCCOc1ccc(C2c3[nH]c4ccc(Br)cc4c3CC3C(=O)N(C(C)C)C(=S)N32)cc1` (centres unmarked) [Compound 158]: the EC50 (Homo sapiens, HeLa) is less than 0.008 µM.

Compound `COc1cccc(C2c3[nH]c4ccc(Br)cc4c3CC3C(=O)N(C4CCCC4)C(=S)N32)c1` (centres unmarked) [Compound 20] gave an EC50 (Homo sapiens, HeLa) of less than 0.008 µM.

As to `O=C1C2Cc3c([nH]c4ccc(Br)cc34)C(c3ccc(OCCCn4ccnn4)cc3)N2C(=S)N1c1ccc(Cl)cc1` (centres unmarked) [Compound 149], the EC50 (Homo sapiens, HeLa) was less than 0.008 µM.

In the case of `COc1ccc(C2c3[nH]c4ccccc4c3CC3C(=O)N(C4CCCC4)C(=S)N32)cc1` (centres unmarked) [Compound 13], the EC50 (Homo sapiens, HeLa) was 0.04 to 0.2 µM.

Where the note is “Homo sapiens, HeLa”, `CN(C)CCCOc1ccc(C2c3[nH]c4ccc(Cl)cc4c3CC3C(=O)N(C4CCCCC4)C(=S)N32)cc1` (centres unmarked) [Compound 114] displayed an EC50 of 0.04 to 0.2 µM.

For the setting “Homo sapiens, HeLa”, `COCCN1C(=O)C2Cc3c([nH]c4ccccc34)C(c3ccc(OC)cc3)N2C1=S` (centres unmarked) [Compound 59] showed an EC50 of more than 1 µM.

`O=C1C2Cc3c([nH]c4ccc(Cl)cc34)C(c3ccc4c(c3)OCO4)N2C(=S)N1C1CCCCC1` (centres unmarked) [Compound 25] came in with an EC50 (Homo sapiens, HeLa) of less than 0.008 µM.

Regarding `COc1ccc(C2c3[nH]c4ccc(Br)cc4c3CC3C(=O)N(c4ccc(Cl)cc4)C(=S)N32)cc1` (centres unmarked) [Compound 138], the EC50 (Homo sapiens, HeLa) was less than 0.008 µM.

Where the note is “Homo sapiens, HeLa”, `COc1ccc(C2c3[nH]c4ccc(Br)cc4c3CC3C(=O)N(c4cccc(C)c4)C(=S)N32)cc1` (centres unmarked) [Compound 170] gave an EC50 of less than 0.008 µM.

On to `COc1ccc(C2c3[nH]c4ccccc4c3CC3C(=O)N(C4CCCCC4)C(=S)N32)cc1` (centres unmarked) [Compound 40], for which, for the setting “Homo sapiens, HeLa”, the EC50 fell in the range of 0.2 to 1 µM.

Under “Homo sapiens, HeLa”, `COc1ccccc1C1c2[nH]c3ccccc3c2CC2C(=O)N(C(C)C)C(=S)N21` (centres unmarked) [Compound 86] returned an EC50 of more than 1 µM.

Compound `CN1C(=O)C2Cc3c([nH]c4ccccc34)C(c3ccc(Cl)c(Cl)c3)N2C1=S` (centres unmarked) [Compound 53] had a concentration for a half-maximal effect (EC50) (Homo sapiens, HeLa) of more than 1 µM.

For `COc1ccc(C2c3[nH]c4ccc(Br)cc4c3CC3C(=O)N(C4CCCCC4)C(=S)N32)cc1` (centres unmarked) [Compound 185], the half-maximal effective concentration (EC50) was less than 0.008 µM.
